Holding throughout (format): binding
The target of one experiment is T1, XaPobA (Xylophilus ampelinus, UniProt A0AAJ6N6I2).
T1 construct: gene praI; codon-optimised gene in modified pET28a, 6xHis tag, E. coli BL21 Star (DE3), HisTrap; homodimer in crystal
T1 sequence (A0AAJ6N6I2 1-391): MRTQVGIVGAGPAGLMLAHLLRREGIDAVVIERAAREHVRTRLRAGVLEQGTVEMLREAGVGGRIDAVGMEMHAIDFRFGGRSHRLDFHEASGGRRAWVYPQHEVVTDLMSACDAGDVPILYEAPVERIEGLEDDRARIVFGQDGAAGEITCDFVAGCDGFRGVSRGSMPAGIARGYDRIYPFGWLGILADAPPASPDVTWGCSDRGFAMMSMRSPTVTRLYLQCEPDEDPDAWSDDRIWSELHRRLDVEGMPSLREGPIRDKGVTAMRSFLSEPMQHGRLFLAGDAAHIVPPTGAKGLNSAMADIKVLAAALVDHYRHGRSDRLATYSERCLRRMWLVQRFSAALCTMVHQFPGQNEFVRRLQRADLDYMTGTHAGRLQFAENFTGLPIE
Kind of experiment: X-ray crystal structure; HPLC of heat-released flavin. Conditions: oxidized form, prosthetic group.

For a further experiment, the target named is T2, OtPobA (Ottowia thiooxydans, UniProt A0ABV2Q8W8).
T2 construct: gene ABIE13_002600; codon-optimised gene in modified pET28a, His-tagged, E. coli BL21 Star (DE3), HisTrap
T2 sequence (A0ABV2Q8W8 1-392): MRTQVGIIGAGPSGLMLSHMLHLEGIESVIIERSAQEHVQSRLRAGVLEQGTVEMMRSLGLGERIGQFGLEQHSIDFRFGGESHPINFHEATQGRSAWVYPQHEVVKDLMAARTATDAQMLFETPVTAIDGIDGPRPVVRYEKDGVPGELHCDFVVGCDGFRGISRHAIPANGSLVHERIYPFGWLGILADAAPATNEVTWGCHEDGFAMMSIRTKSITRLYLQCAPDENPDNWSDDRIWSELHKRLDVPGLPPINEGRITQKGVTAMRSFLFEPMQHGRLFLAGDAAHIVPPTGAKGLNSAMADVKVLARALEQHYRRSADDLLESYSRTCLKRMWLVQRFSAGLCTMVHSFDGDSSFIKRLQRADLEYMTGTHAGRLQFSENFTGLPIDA
The experiment can be described thus: HPLC of heat-released flavin; absorption spectrum. Conditions: prosthetic group.

Another experiment concerns the target T3, PkPobA (Pigmentiphaga kullae, UniProt A0A4Q7NA79).
T3 construct: gene EV675_5624; codon-optimised gene in modified pET28a, His-tagged, E. coli BL21 Star (DE3), HisTrap
T3 sequence (A0A4Q7NA79 1-391): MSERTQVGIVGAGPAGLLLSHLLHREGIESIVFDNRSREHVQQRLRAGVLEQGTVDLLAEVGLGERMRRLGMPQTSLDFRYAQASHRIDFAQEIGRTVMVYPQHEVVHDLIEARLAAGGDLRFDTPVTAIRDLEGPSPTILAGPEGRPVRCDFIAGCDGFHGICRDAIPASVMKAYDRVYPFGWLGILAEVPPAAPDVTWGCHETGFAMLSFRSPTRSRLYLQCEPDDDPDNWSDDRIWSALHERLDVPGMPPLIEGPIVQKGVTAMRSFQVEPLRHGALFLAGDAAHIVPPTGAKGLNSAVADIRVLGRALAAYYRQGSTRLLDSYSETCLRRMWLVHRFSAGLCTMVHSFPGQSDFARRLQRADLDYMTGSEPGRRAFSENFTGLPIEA
Kind of experiment: HPLC of heat-released flavin; absorption spectrum. Conditions: prosthetic group.

SMILES strings stand for the structures.

For `Cc1cc2nc3c(=O)[nH]c(=O)nc-3n(C[C@H](O)[C@H](O)[C@H](O)COP(=O)(O)OP(=O)(O)OC[C@H]3O[C@@H](n4cnc5c(N)ncnc54)[C@H](O)[C@@H]3O)c2cc1C` [FAD, flavin adenine dinucleotide], the “X-ray crystal structure; HPLC of heat-released flavin” value at XaPobA was “homodimer, with each unit binding an oxidized form of FAD in its active site”. Further, the “HPLC of heat-released flavin; absorption spectrum” value at OtPobA is “indicating that XaPobA, OtPobA, and PkPobA use FAD as a prosthetic group”; at PkPobA, “indicating that XaPobA, OtPobA, and PkPobA use FAD as a prosthetic group”.

For the origin of these results see article PMC10770758, “Protocatechuate hydroxylase is a novel group A flavoprotein monooxygenase with a unique substrate recognition mechanism” (The Journal of Biological Chemistry, 2023).
